Values quoted from earlier work in EP2484728B1, “Ink composition, ink set, and image forming method” (Fujifilm Corporation, priority 2011, dated 2012).

Settings: 25°C; Polymer Handbook values, otherwise calculated by the Fedors method

| Molecule | SP value |
| --- | --- |
| POP (6) glyceryl ether | 23. 2 (MPa)^1/2 |
| POP (5) glyceryl ether | 23.9 (MPa)^1/2 |
| POP (7) glyceryl ether | 22.6 (MPa)^1/2 |
| Pentaoxyethylene pentaoxypropylene butyl ether | 18.8 (MPa)^1/2 |
| CC(O)COC(C)COC(C)CO (centres unmarked) [Tripropylene glycol] | 24.7 (MPa)^1/2 |
| CC(O)COC(C)COC(C)COC(C)COC(C)COC(C)COC(C)CO (centres unmarked) [Heptapropylene glycol] | 21.2 (MPa)^1/2 |
| POP (4) diglyceryl ether | 26.1 (MPa)^1/2 |
| POE (20) diglyceryl ether | 22.4 (MPa)^1/2 |
| OCC(O)CO [glycerin] | glycerin (33.5) (MPa)^1/2 |
| OCCOCCO [DEG, Diethylene glycol] | DEG (30.6) (MPa)^1/2 |
| COCCOCCO [Diethylene glycol monomethyl ether] | 22.4 (MPa)^1/2 |
| POP (8) glyceryl ether | 22.1 (MPa)^1/2 |
| Dodecaoxyethylene dodecaoxypropylene butyl ether | 18.8 (MPa)^1/2 |
| COC(C)COC(C)CO (centres unmarked) [Dipropylene glycol monomethyl ether] | 21.3 (MPa)^1/2 |
| Decaoxyethylene heptaoxypropylene butyl ether | 18.8 (MPa)^1/2 |
| POP (4) glyceryl ether | 24.9 (MPa)^1/2 |
| POP (3) glycerylether | 26. 4 (MPa)^1/2 |

Now from value to molecule:

| SP value | Molecule |
| --- | --- |
| 24.1 (MPa)^1/2 | CCCCC(O)CO (centres unmarked) [1,2-Hexanediol] |
| 18.8 (MPa)^1/2 | Pentacosaoxyethylene triacontaoxypropylene butyl ether |
| 20.1 (MPa)^1/2 | Dioxyethylene dioxypropylene butyl ether |
| 21.1 (MPa)^1/2 | CCCCOCCOCCOCCO [Triethylene glycol monobutyl ether] |
| 21.4 (MPa)^1/2 | POP (10) glyceryl ether |
| 20.4 (MPa)^1/2 | COC(C)COC(C)COC(C)CO (centres unmarked) [Tripropylene glycol monomethyl ether] |
| 21.7 (MPa)^1/2 | CCOCCOCCOCCO [Triethylene glycol monoethyl ether] |
| 22.1 (MPa)^1/2 | COCCOCCOCCO [Triethylene glycol monomethyl ether] |
| 22.3 (MPa)^1/2 | CCOCC(C)O (centres unmarked) [Propylene glycol monoethyl ether] |
| 21.7 (MPa)^1/2 | POP (9) glyceryl ether |
| 21.5 (MPa)^1/2 | CCCCOCCOCCO [Diethylene glycol monobutyl ether] |
| 21.0 (MPa)^1/2 | POE (40) diglyceryl ether |
| 18.7 (MPa)^1/2 | Decaoxyethylene triacontaoxypropylene butyl ether |
| 22.7 (MPa)^1/2 | POP (9) diglyceryl ether |
| 20.2 (MPa)^1/2 | POP (16) glyceryl ether |
